Consider three compounds from US7388095B2, “5-substituted indole-2-carboxamide derivatives” (Hoffmann-La Roche Inc., priority 2005, dated 2008).

In this assay the target is T1, histamine 3 receptor (H3R) (Homo sapiens, UniProt Q9Y5N1).
T1 construct: expressed in transfected cells; host or cells: CHO cells (HR3-CHO cell line), membrane preparation
T1 sequence (Q9Y5N1 whole entry): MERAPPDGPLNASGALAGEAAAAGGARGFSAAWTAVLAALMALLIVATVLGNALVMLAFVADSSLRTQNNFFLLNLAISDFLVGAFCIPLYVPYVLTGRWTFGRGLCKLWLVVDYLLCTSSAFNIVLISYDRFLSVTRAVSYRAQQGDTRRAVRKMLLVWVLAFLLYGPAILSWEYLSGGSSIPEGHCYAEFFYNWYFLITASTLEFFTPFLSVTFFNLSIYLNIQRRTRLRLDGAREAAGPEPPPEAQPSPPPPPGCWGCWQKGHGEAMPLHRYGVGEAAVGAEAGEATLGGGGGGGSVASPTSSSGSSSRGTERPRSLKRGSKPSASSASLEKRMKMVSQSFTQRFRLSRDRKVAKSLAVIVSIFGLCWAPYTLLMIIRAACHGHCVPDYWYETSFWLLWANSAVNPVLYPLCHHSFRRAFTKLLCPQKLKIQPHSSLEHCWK
The assay is described as follows: Competition binding assay with 3H-(R)α-methylhistamine on membranes of the human HR3-CHO cell line. The note with it: 3H(R)α-methylhistamine 1 nM, Ki calculated from IC50 by Cheng-Prusoff equation. As to the method:
Binding assay with ^3H-(R)α-methylhistamine
Saturation binding experiments were performed using HR3-CHO membranes prepared as described in Takahashi, K, Tokita, S., Kotani, H. (2003) J. Pharmacol. Exp. Therapeutics 307, 213-218.
An appropriate amount of membrane (60 to 80 μg protein/well) was incubated with increasing concentrations of ^3H(R)α-Methylhistamine di-hydrochloride (0.10 to 10 nM). Non-specific binding was determined using a […] excess of cold (R)α-methylhistamine dihydrobromide (500 nM final concentration). The incubation was carried out at room temperature (in deep-well plates shaking for three hours). The final volume in each well was 250 μl. The incubation was followed by rapid filtration on GF/B filters (pre-soaked with 100 μl of 0.5% PEI in Tris 50 mM shaking at 200 rpm for two hours). The filtration was made using a cell-harvester and the filter plates were then washed five times with ice cold washing buffer containing 0.5 M NaCl. After harvesting, the plates were dried at 55° C. for 60 min, then scintillation fluid (Microscint 40, 40 microl in each well) was added and the amount of radioactivity on the filter was determined with a Packard top-counter after shaking the plates for two hours at 200 rpm at room temperature.
Binding Buffer: 50 mM Tris-HCl pH 7.4 and 5 mM MgCl2x6H2O pH 7.4. Washing Buffer: 50 mM Tris-HCl pH 7.4 and 5 mM MgCl2x6H2O and 0.5 M NaCl pH 7.4.
Indirect measurement of affinity of H3R inverse agonists: twelve increasing concentrations (ranging from 10 μM to 0.3 nM) of the selected compounds were always tested in competition binding experiments using membrane of the human HR3-CHO cell line. An appropriate amount of protein, e.g. approximately 500 cpm binding of RAMH at Kd, were incubated for 1 hour at room temperature in 250 μl final volume in 96-well plates in presence of ^3H(R)α-methylhistamine (1 nM final concentration=Kd). […]
All compounds were tested at a single concentration in duplicates. […] Ki's were calculated from IC50 based on Cheng-Prusoff equation (Cheng, Y, Prusoff, W H (1973) Biochem Pharmacol 22, 3099-3108).
Turning to `O=C(c1cc2cc(OCCCN3CC4CC4C3)ccc2n1CC(F)(F)F)N1CCOCC1` (stereo not drawn) [Example 6, [5-[3-(3-Aza-bicyclo[3.1.0]hex-3-yl)-propoxy]-1-(2,2,2-trifluoro-ethyl)-1H-indol-2-yl]-morpholin-4-yl-methanone], the inhibitory constant (Ki) (as a rule, a measure of affinity in units of concentration, obtained from inhibition or displacement) is 26 nM.
The result for `O=C(c1cc2cc(OCCCN3CC4CC4C3)ccc2[nH]1)N1CCOCC1` (stereo not drawn) [Example 5, {5-[3-(3-Aza-bicyclo[3.1.0]hex-3-yl)-propoxy]-1H-indol-2-yl}-morpholin-4-yl-methanone] reads 40 nM; that for `CC(C)N1CCOC(COc2ccc3c(c2)cc(C(=O)N2CCOCC2)n3CC(F)(F)F)C1` (stereo not drawn) [Example 1, [5-(4-Isoopropyl-morpholin-2-ylmethoxy)-1-(2,2,2-trifluoro-ethyl)-1H-indol-2-yl]-morpholin-4-yl-methanone], 30 nM.
